{"source": "the supplement of paper PMC10307832", "assay_in_all_cases": "relative viability (nuclei count vs DMSO), 5 days (fraction); higher = more cells survive", "key": {"NCI-H2170": {"system": "NCI-H2170", "method_in_brief": "(§1)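 After 5 days of treatment, lung cancer cells in 1536-well plates were fixed and stained in a single step (final 0.05% Triton X-100, 1% formaldehyde, 1 ug/ml Hoechst) and their nuclei counted on 4× images. Treatment had been applied by pin tool the day after seeding as one drug alone or as a fixed anchor-drug dose with five library-drug doses (not always all listed) in √10 steps. Relative viability is the nuclei count of treated wells divided by that of vehicle wells, and values are medians of duplicate plates.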"}, "NCI-H3122": {"system": "NCI-H3122", "method_in_brief": "as §1"}, "NCI-H1993": {"system": "NCI-H1993", "method_in_brief": "as §1"}, "NCI-H1792": {"system": "NCI-H1792", "method_in_brief": "as §1"}, "HARA": {"system": "HARA", "method_in_brief": "as §1"}, "NCI-H1944": {"system": "NCI-H1944", "method_in_brief": "as §1"}, "PC-3 [JPC-3]": {"system": "PC-3 [JPC-3]", "method_in_brief": "as §1"}, "EMC-BAC-2": {"system": "EMC-BAC-2", "method_in_brief": "as §1"}, "NCI-H2228": {"system": "NCI-H2228", "method_in_brief": "as §1"}, "NCI-H322M": {"system": "NCI-H322M", "method_in_brief": "as §1"}, "SK-MES-1": {"system": "SK-MES-1", "method_in_brief": "as §1"}, "NCI-H596": {"system": "NCI-H596", "method_in_brief": "as §1"}, "HOP-62": {"system": "HOP-62", "method_in_brief": "as §1"}, "A-427": {"system": "A-427", "method_in_brief": "as §1"}, "LK-2": {"system": "LK-2", "method_in_brief": "as §1"}, "SW 1573": {"system": "SW 1573", "method_in_brief": "as §1"}, "LXF-289": {"system": "LXF-289", "method_in_brief": "as §1"}, "ABC-1": {"system": "ABC-1", "method_in_brief": "as §1"}, "NCI-H2009": {"system": "NCI-H2009", "method_in_brief": "as §1"}, "NCI-H727": {"system": "NCI-H727", "method_in_brief": "as §1"}}}
{"molecule": "COc1cc2nccc(Oc3ccc(NC(=O)Nc4cc(C)on4)c(Cl)c3)c2cc1OC", "note": "[Tivozanib] + Cc1nc(NC(=O)N2CCC[C@H]2C(N)=O)sc1-c1ccnc(C(C)(C)C(F)(F)F)c1 [Alpelisib] (partner 2 µM)", "values": [{"measurement": "relative viability", "setting": "NCI-H2170; first compound 0.005 µM", "result": 0.885}, {"measurement": "relative viability", "setting": "NCI-H2170; first compound 0.01581 µM", "result": 0.952}, {"measurement": "relative viability", "setting": "NCI-H2170; first compound 0.05 µM", "result": 0.799}, {"measurement": "relative viability", "setting": "NCI-H2170; first compound 0.5 µM", "result": 0.867}, {"measurement": "relative viability", "setting": "NCI-H3122; first compound 0.005 µM", "result": 0.668}, {"measurement": "relative viability", "setting": "NCI-H3122; first compound 0.01581 µM", "result": 0.792}, {"measurement": "relative viability", "setting": "NCI-H3122; first compound 0.05 µM", "result": 0.798}, {"measurement": "relative viability", "setting": "NCI-H3122; first compound 0.1581 µM", "result": 0.973}, {"measurement": "relative viability", "setting": "NCI-H3122; first compound 0.5 µM", "result": 0.983}, {"measurement": "relative viability", "setting": "NCI-H1993; first compound 0.005 µM", "result": 0.657}, {"measurement": "relative viability", "setting": "NCI-H1993; first compound 0.01581 µM", "result": 0.741}, {"measurement": "relative viability", "setting": "NCI-H1993; first compound 0.05 µM", "result": 0.688}, {"measurement": "relative viability", "setting": "NCI-H1993; first compound 0.1581 µM", "result": 0.688}, {"measurement": "relative viability", "setting": "NCI-H1993; first compound 0.5 µM", "result": 0.695}, {"measurement": "relative viability", "setting": "NCI-H1792; first compound 0.005 µM", "result": 0.728}, {"measurement": "relative viability", "setting": "NCI-H1792; first compound 0.01581 µM", "result": 0.778}, {"measurement": "relative viability", "setting": "NCI-H1792; first compound 0.05 µM", "result": 0.786}, {"measurement": "relative viability", "setting": "NCI-H1792; first compound 0.1581 µM", "result": 0.847}, {"measurement": "relative viability", "setting": "NCI-H1792; first compound 0.5 µM", "result": 0.812}, {"measurement": "relative viability", "setting": "HARA; first compound 0.005 µM", "result": 0.911}, {"measurement": "relative viability", "setting": "HARA; first compound 0.01581 µM", "result": 0.838}, {"measurement": "relative viability", "setting": "HARA; first compound 0.05 µM", "result": 0.908}, {"measurement": "relative viability", "setting": "HARA; first compound 0.1581 µM", "result": 0.877}, {"measurement": "relative viability", "setting": "HARA; first compound 0.5 µM", "result": 0.798}, {"measurement": "relative viability", "setting": "NCI-H1944; first compound 0.005 µM", "result": 0.889}, {"measurement": "relative viability", "setting": "NCI-H1944; first compound 0.01581 µM", "result": 0.902}, {"measurement": "relative viability", "setting": "NCI-H1944; first compound 0.05 µM", "result": 0.885}, {"measurement": "relative viability", "setting": "NCI-H1944; first compound 0.1581 µM", "result": 0.733}, {"measurement": "relative viability", "setting": "NCI-H1944; first compound 0.5 µM", "result": 0.912}, {"measurement": "relative viability", "setting": "PC-3 [JPC-3]; first compound 0.005 µM", "result": 0.988}, {"measurement": "relative viability", "setting": "PC-3 [JPC-3]; first compound 0.01581 µM", "result": 1.11}, {"measurement": "relative viability", "setting": "PC-3 [JPC-3]; first compound 0.05 µM", "result": 1.15}, {"measurement": "relative viability", "setting": "PC-3 [JPC-3]; first compound 0.1581 µM", "result": 0.957}, {"measurement": "relative viability", "setting": "PC-3 [JPC-3]; first compound 0.5 µM", "result": 0.997}, {"measurement": "relative viability", "setting": "EMC-BAC-2; first compound 0.005 µM", "result": 0.722}, {"measurement": "relative viability", "setting": "EMC-BAC-2; first compound 0.01581 µM", "result": 0.736}, {"measurement": "relative viability", "setting": "EMC-BAC-2; first compound 0.05 µM", "result": 0.753}, {"measurement": "relative viability", "setting": "EMC-BAC-2; first compound 0.1581 µM", "result": 0.696}, {"measurement": "relative viability", "setting": "EMC-BAC-2; first compound 0.5 µM", "result": 0.774}, {"measurement": "relative viability", "setting": "NCI-H2228; first compound 0.005 µM", "result": 0.653}, {"measurement": "relative viability", "setting": "NCI-H2228; first compound 0.01581 µM", "result": 0.81}, {"measurement": "relative viability", "setting": "NCI-H2228; first compound 0.05 µM", "result": 0.944}, {"measurement": "relative viability", "setting": "NCI-H2228; first compound 0.1581 µM", "result": 0.743}, {"measurement": "relative viability", "setting": "NCI-H2228; first compound 0.5 µM", "result": 0.72}, {"measurement": "relative viability", "setting": "NCI-H322M; first compound 0.005 µM", "result": 0.743}, {"measurement": "relative viability", "setting": "NCI-H322M; first compound 0.01581 µM", "result": 0.764}, {"measurement": "relative viability", "setting": "NCI-H322M; first compound 0.05 µM", "result": 0.767}, {"measurement": "relative viability", "setting": "NCI-H322M; first compound 0.1581 µM", "result": 0.756}, {"measurement": "relative viability", "setting": "NCI-H322M; first compound 0.5 µM", "result": 0.84}, {"measurement": "relative viability", "setting": "SK-MES-1; first compound 0.005 µM", "result": 0.763}, {"measurement": "relative viability", "setting": "SK-MES-1; first compound 0.01581 µM", "result": 1.08}, {"measurement": "relative viability", "setting": "SK-MES-1; first compound 0.05 µM", "result": 0.876}, {"measurement": "relative viability", "setting": "SK-MES-1; first compound 0.1581 µM", "result": 0.869}, {"measurement": "relative viability", "setting": "SK-MES-1; first compound 0.5 µM", "result": 0.857}, {"measurement": "relative viability", "setting": "NCI-H596; first compound 0.005 µM", "result": 0.462}, {"measurement": "relative viability", "setting": "NCI-H596; first compound 0.01581 µM", "result": 0.464}, {"measurement": "relative viability", "setting": "NCI-H596; first compound 0.05 µM", "result": 0.544}, {"measurement": "relative viability", "setting": "NCI-H596; first compound 0.1581 µM", "result": 0.47}, {"measurement": "relative viability", "setting": "NCI-H596; first compound 0.5 µM", "result": 0.595}, {"measurement": "relative viability", "setting": "HOP-62; first compound 0.005 µM", "result": 0.72}, {"measurement": "relative viability", "setting": "HOP-62; first compound 0.01581 µM", "result": 0.729}, {"measurement": "relative viability", "setting": "HOP-62; first compound 0.05 µM", "result": 1.06}, {"measurement": "relative viability", "setting": "HOP-62; first compound 0.1581 µM", "result": 0.483}, {"measurement": "relative viability", "setting": "HOP-62; first compound 0.5 µM", "result": 0.901}, {"measurement": "relative viability", "setting": "A-427; first compound 0.005 µM", "result": 1.05}, {"measurement": "relative viability", "setting": "A-427; first compound 0.01581 µM", "result": 1.1}, {"measurement": "relative viability", "setting": "A-427; first compound 0.05 µM", "result": 1.12}, {"measurement": "relative viability", "setting": "A-427; first compound 0.1581 µM", "result": 0.925}, {"measurement": "relative viability", "setting": "A-427; first compound 0.5 µM", "result": 1.06}, {"measurement": "relative viability", "setting": "LK-2; first compound 0.005 µM", "result": 0.93}, {"measurement": "relative viability", "setting": "LK-2; first compound 0.01581 µM", "result": 1.19}, {"measurement": "relative viability", "setting": "LK-2; first compound 0.05 µM", "result": 1.55}, {"measurement": "relative viability", "setting": "LK-2; first compound 0.1581 µM", "result": 0.84}, {"measurement": "relative viability", "setting": "LK-2; first compound 0.5 µM", "result": 0.896}, {"measurement": "relative viability", "setting": "SW 1573; first compound 0.005 µM", "result": 0.796}, {"measurement": "relative viability", "setting": "SW 1573; first compound 0.01581 µM", "result": 0.825}, {"measurement": "relative viability", "setting": "SW 1573; first compound 0.05 µM", "result": 0.784}, {"measurement": "relative viability", "setting": "SW 1573; first compound 0.1581 µM", "result": 0.639}, {"measurement": "relative viability", "setting": "SW 1573; first compound 0.5 µM", "result": 0.776}, {"measurement": "relative viability", "setting": "LXF-289; first compound 0.005 µM", "result": 1.02}, {"measurement": "relative viability", "setting": "LXF-289; first compound 0.01581 µM", "result": 0.966}, {"measurement": "relative viability", "setting": "LXF-289; first compound 0.05 µM", "result": 1.06}, {"measurement": "relative viability", "setting": "LXF-289; first compound 0.1581 µM", "result": 1.09}, {"measurement": "relative viability", "setting": "LXF-289; first compound 0.5 µM", "result": 1.02}, {"measurement": "relative viability", "setting": "ABC-1; first compound 0.005 µM", "result": 0.971}, {"measurement": "relative viability", "setting": "ABC-1; first compound 0.01581 µM", "result": 0.99}, {"measurement": "relative viability", "setting": "ABC-1; first compound 0.05 µM", "result": 0.917}, {"measurement": "relative viability", "setting": "ABC-1; first compound 0.1581 µM", "result": 1.27}, {"measurement": "relative viability", "setting": "ABC-1; first compound 0.5 µM", "result": 1.08}, {"measurement": "relative viability", "setting": "NCI-H2009; first compound 0.005 µM", "result": 1.16}, {"measurement": "relative viability", "setting": "NCI-H2009; first compound 0.01581 µM", "result": 1.08}, {"measurement": "relative viability", "setting": "NCI-H2009; first compound 0.05 µM", "result": 1.29}, {"measurement": "relative viability", "setting": "NCI-H2009; first compound 0.1581 µM", "result": 1.22}, {"measurement": "relative viability", "setting": "NCI-H2009; first compound 0.5 µM", "result": 1.19}, {"measurement": "relative viability", "setting": "NCI-H727; first compound 0.005 µM", "result": 0.505}, {"measurement": "relative viability", "setting": "NCI-H727; first compound 0.01581 µM", "result": 0.501}, {"measurement": "relative viability", "setting": "NCI-H727; first compound 0.05 µM", "result": 0.675}, {"measurement": "relative viability", "setting": "NCI-H727; first compound 0.5 µM", "result": 0.615}]}
